From article PMC4877593, “Design and Synthesis of Potent in Vitro and in Vivo Anticancer Agents Based on 1-(3′,4′,5′-Trimethoxyphenyl)-2-Aryl-1H-Imidazole” (Scientific Reports, 2016)

Legend:
[1] = test system: HL-60; test: In vitro antiproliferative activity (MTT), HL-60; format: cell-based; conditions: Homo sapiens, tumor cell proliferation, 72 h, mean ± SE
[2] = test system: HT-29; test: In vitro antiproliferative activity (MTT), HT-29; format: cell-based; conditions: Homo sapiens, tumor cell proliferation, 72 h, mean ± SE
Description: (§1) Human T-cell leukemia (CCRF-CEM and Jurkat) and human B-cell leukemia (SEM) cells were grown in RPMI-1640 medium (Gibco, Milano, Italy). Breast adenocarcinoma (MCF7), human cervix carcinoma (HeLa), and human colon adenocarcinoma (HT-29) cells were grown in DMEM medium (Gibco, Milano, Italy), all supplemented with 115 units/mL penicillin G (Gibco, Milano, Italy), 115 μg/mL streptomycin (Invitrogen, Milano, Italy), and 10% fetal bovine serum (Invitrogen, Milano, Italy). Stock solutions (10 mM) of the different compounds were obtained by dissolving them in dimethyl sulfoxide (DMSO). Individual wells of a 96-well tissue culture microtiter plate were inoculated with 100 μL of complete medium containing 8 × 10^3 cells. The plates were incubated at 37 °C in a humidified 5% CO2 incubator for 18 h prior to the experiments. After medium removal, 100 μL of fresh medium containing the test compound at different concentrations was added to each well in triplicate and incubated at 37 °C for 72 h. The percentage of DMSO in the medium never exceeded 0.25%. This was also the maximum DMSO concentration in all cell-based assays described below. […] Different concentrations of the test compounds were added, and viability was determined 72 h later by the MTT test. For cytotoxicity evaluations in resting PBL cultures, non-adherent cells were resuspended (5 × 10^5 cells/mL) and treated for 72 h with the test compounds, as described above.

[3] = test system: Jurkat; test: ROS production (H2-DCFDA), Jurkat; format: cell-based, human; conditions: in comparison with control cells
Description: (§2) Figure 7 Assessment of mitochondrial membrane potential (Δψmt) and production of ROS after treatment of HeLa (Panels A,B) or Jurkat (Panels C,D) cells with compound 4o. Cells were treated with the indicated concentration of compound for 24 or 48 h and then stained with the fluorescent probe JC-1 for analysis of mitochondrial potential or H2-DCFDA for the evaluation of ROS levels. Cells were then analyzed by flow cytometry as described in the experimental section.
(§3) It is also well known that dissipation of mitochondrial potential is associated with mitochondrial production of ROS[38]. Superoxide anion is produced by mitochondria due to a shift from the normal 4-electron reduction of O2 to a 1-electron reduction when cytochrome c is released from mitochondria upon apoptosis. Therefore, we investigated whether ROS production increased after treatment with compound 4o. We utilized the dye 2,7-dichlorodihydrofluorescein diacetate (H2-DCFDA), which is oxidized to the fluorescent compound dichlorofluorescein (DCF) upon ROS induction.

[4] = test system: BL6-B16 mouse melanoma cell line; test: Mouse allograft (syngeneic) tumor model; format: in vivo; conditions: for reduction of tumor mass: doses on days 9, 11 and 14, C57BL/6 mice
Description: […] As reference compound, CA-4P (1b) was used at 30 mg/kg. The BL6-B16 mouse melanoma cell line, injected subcutaneously in syngeneic C57/BL6 mice, is able to proliferate and generate tumor masses.
Figure 9 Inhibition of mouse allograft growth in vivo by compound 4o. Male C57BL/6 mice were injected subcutaneously at their dorsal region with […] BL6-B16 murine melanoma cells. […] Injections were given intraperitoneally at the days indicated by the arrows. Data are presented as mean ± SEM of tumor volume at each time point for 5 animals per group. *p < 0.05, **p < 0.01 ***p < 0.001 vs. control.
Six week old C57BL/6 mice (Charles River, Calco) were injected subcutaneously into the dorsolateral flank with 2.5 × 10^5 BL6-B16 murine melanoma cells in 200 μL-total volume of PBS. When tumors were palpable, animals were treated intraperitoneally every other day with different doses of test compounds dissolved in 50 μL of DMSO. Tumors were measured in two dimensions, and tumor volume was calculated according to the formula V = (D × d^2)/2, where D and d are the major and minor perpendicular tumor diameters, respectively.

[5] = test system: MCF-7; test: In vitro antiproliferative activity (MTT), MCF-7; format: cell-based; conditions: Homo sapiens, MCF7, tumor cell proliferation, 72 h, mean ± SE
Description: as §1

[6] = test system: HeLa; test: ROS production (H2-DCFDA), HeLa; format: cell-based, human; conditions: in comparison with control cells
Description: as §2, §3

[7] = highest dose (7.5 mg/kg i.p.), mice, data not shown

CCOc1ccc(-c2nccn2-c2cc(OC)c(OC)c(OC)c2)cc1Cl [Compound 4o, 2-(3′-Chloro-4′-ethoxyphenyl)-1-(3′,4′,5′-trimethoxyphenyl)-1H-imidazole]
IC50 [1]: 1800 ± 600 pM | IC50 [2]: 400 ± 60 pM | ROS production (H2-DCFDA) [3]: induced the production of large amounts of ROS | reduction of tumor mass ([4]; 1 mg/kg i.p.): 26.0% | reduction of tumor mass ([4]; 3.5 mg/kg i.p.): 32.2% | reduction of tumor mass ([4]; 7.5 mg/kg i.p.): 45.8% | animal body weight [4, 7]: did not cause a decrease in animal body weight | signs of toxicity [4, 7]: did not present any sign of toxicity | IC50 [5]: 700 ± 60 pM | ROS production (H2-DCFDA) [6]: induced the production of large amounts of ROS
